Test results as given in patent US10655153B2, “Chemoenzymatic synthesis of peptide beta-lactones and beta-hydroxy acids” (Washington University, priority 2017, dated 2020).
Entries after “also recorded” stand apart in the source; their conditions may differ.

What was measured:
[1] = tested on: E. coli ATCC 25922; test: Fluorescence microscopy of fixed cells stained with DAPI and FM 4-64fx; assay type: cell-based; conditions: RC-Obi 0.1 mM, RO-Obi 0.5 mM, 2 hours at 37° C.
Experimental: The E. coli cells were also subjected to fluorescence microscopy after treatment with RC-Obi or RO-Obi. E. coli ATCC 29522 cells were grown in LB media for 8 hours at 37° C. then plated on agar media and incubated overnight at 37° C. A single colony was transferred into test tube with fresh LB media and allowed to grow to 0.3 OD600 at 37° C. Cells were diluted by a factor of 10, allowed to grow to OD600 0.3 again. Aliquots of the cell suspension (2 mL each) were treated with RC-Obi (0.1 mM), RO-Obi (0.5 mM), ampicillin (50 μg/mL), or buffer control and incubated for 2 hours at 37° C. Culture aliquots of 250 μL were then used for staining and fluorescence microscopy. Cell membranes and DNA were labeled with the fixable dyes FM 4-64fx and DAPI, respectively, according to the manufacturer's instructions. Cells were fixed with 2.6% paraformaldehyde+0.008% glutaraldehyde as previously described. Fixed cells were imaged on 1% agarose pads with an Olympus BX51 microscope equipped with a CCD OrcaERG camera (Hamamatsu Photonics, Bridgewater, N.J.), an Olympus Plan N 100X/1.25 Oil Ph3 objective, and an X-Cite 120 LED light source (Lumen Dynamics). Nikon elements were used for image capture using the DAPI and rhodamine filter sets from Chroma. Images were processed using NIS—Elements Basic Research Microscope Imaging Software (Nikon Corp.).

[2] = tested on: E. coli ATCC 25922; test: Antibiotic susceptibility testing, growth curves by OD600; assay type: cell-based; conditions: for effect on E. coli growth (OD600): 150 μM, M9 minimal media, compared to buffer control
Experimental: (§1) Bacterial strains (E. coli 29522 and E. coli X580) were grown from frozen glycerol stocks in LB media overnight at 37° C. with shaking. These starter cultures were used to inoculate fresh LB broth or M9 minimal media broth at an OD600 of 0.3. Each well of a 96-well plate was filled with 100 μL of sterile media (LB or M9). A sterile solution of RC-Obi or RO-Obi in LB or M9 media was added to the first well of each row and was serially diluted two-fold down the entire row creating a compound concentration gradient of 0.3-0.0025 mM.
(§2) Each well of the plate was then filled with 100 μL of the OD600 0.3 bacterial cell suspensions to give a final volume of 200 μL per well. The plates were incubated at 37° C. and the OD600 of each well was measured every 30 minutes over 24 hours. The plate was shaken briefly prior to each measurement to ensure an even cell suspension. All growth curves were generated in triplicate.

[3] = tested on: E. coli X580; test: Growth curves of β-lactam hypersensitive E. coli X580; assay type: cell-based; conditions: varying concentrations of RC-Obi
Experimental: as §1, §2
(§3) E. coli ATCC 25922 was passaged in LB broth through 6 overnight cycles in the presence of 0.25 mM RC-Obi β-lactone with fresh doses of antibiotic added every 18 hours for 6 days straight.

[4] = previous studies; cited from earlier work
[5] = tested on: 6× passaged E. coli ATCC 25922; test: Growth curves of 6× passaged E. coli in the presence of RC-Obi; assay type: cell-based; conditions: 6 overnight cycles in LB broth with 0.25 mM RC-Obi, then varying concentrations in LB broth
Experimental: as §3

[6] = reported; cited from earlier work
[7] = tested on: Streptococcus pneumonia; conditions: reported; cited from earlier work

Row | Compound | cell clumping phenotype [1] | effect on E. coli growth (OD600) [2] | sensitivity compared to E. coli ATCC 29522 [3] | hydrolysis in aqueous solutions [4] | susceptibility after passaging [5] | antibacterial activity [6] | time until growth recovered to normal levels ([2]; after treatment with RC-Obi) [h] | effect on E. coli growth (OD600) at various concentrations ([2]; various concentrations of RC-Obi, or buffer control) | efficacy in murine septicemia model [7]
1 | O=C(NC(C(=O)O)C(O)Cc1ccc([N+](=O)[O-])cc1)c1cccc(O)c1O (centres unmarked) [RO-Obi] | moderate cell clumping | minimal effect on E. coli growth |  |  |  |  |  |  | 
2 | O=C(N[C@@H]1C(=O)O[C@@H]1Cc1ccc([N+](=O)[O-])cc1)c1cccc(O)c1O [RC-Obi, obafluorin] | induced a cell clumping phenotype; also recorded: severe cell clumping | inhibited the growth of E. coli; also recorded: halted E. coli growth | enhanced sensitivity and slower growth recovery | hydrolyzes rapidly | still susceptible to the antibiotic | broad-spectrum antibacterial activity | ~10 | inhibited the growth of E. coli in a dose-dependent manner | demonstrated efficacy
